Source: patent publication US20250230193A1, “CYCLIC COMPOUND HAVING SELECTIVE KRAS INHIBITORY EFFECT ON HRAS AND NRAS” (CHUGAI SEIYAKU KABUSHIKI KAISHA, priority 2022, published 2025)
*1 amine or outer side, *2 acyl side, *3 side chain or, on linkers, in order; H or OH if unused. Where a SMILES comes first, the peptide text is derived from it. Bridges are numbered along the chain shown (N, C = ends). [ ]: non-standard residue; d: D form. The star is where a group is joined. hPhe(3,5-F2-4-CF3) = N[C@@H](CCc1cc(F)c(C(F)(F)F)c(F)c1)C(=O)O; hPhe(3-Cl-4-CF3) = N[C@@H](CCc1ccc(C(F)(F)F)c(Cl)c1)C(=O)O; NPrPhe(4-CF3) = CCCN[C@@H](Cc1ccc(C(F)(F)F)cc1)C(=O)O; NEtPhe(4-CF3) = CCN[C@@H](Cc1ccc(C(F)(F)F)cc1)C(=O)O; X48 = C=CCCN([C@@H](Cc1ccc(C)cc1)C(=O)[*:2])[*:1]; NMeGly(cPent) = CN[C@H](C(=O)O)C1CCCC1; NMeD = CN[C@@H](CC(=O)O)C(=O)O; NMeL = CN[C@@H](CC(C)C)C(=O)O; Iva = CC[C@](C)(N)C(=O)O; Morpholide = C1CN(*)CCO1; Ac5c = NC1(C(=O)O)CCCC1; Aze = O=C(O)[C@@H]1CCN1; Ac3c = NC1(C(=O)O)CC1; NPrGly = CCCNCC(=O)O; Sar = CNCC(=O)O

What was measured:
[1] = biological target: GDP-bound NRAS wild-type protein (Homo sapiens, UniProt P01111); experiment: Binding to NRAS by surface plasmon resonance (SPR), Single Cycle Kinetics
Chain of GDP-bound NRAS wild-type protein (P01111 whole entry): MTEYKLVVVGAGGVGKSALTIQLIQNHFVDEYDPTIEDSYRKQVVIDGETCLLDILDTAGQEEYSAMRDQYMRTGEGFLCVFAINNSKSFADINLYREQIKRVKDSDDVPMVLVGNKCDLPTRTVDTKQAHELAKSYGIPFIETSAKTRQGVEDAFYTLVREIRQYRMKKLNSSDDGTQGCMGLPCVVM

[2] = biological target: GDP-bound HRAS wild-type protein (Homo sapiens, UniProt P01112); experiment: Binding to HRAS by surface plasmon resonance (SPR), Single Cycle Kinetics
Chain of GDP-bound HRAS wild-type protein (P01112 whole entry): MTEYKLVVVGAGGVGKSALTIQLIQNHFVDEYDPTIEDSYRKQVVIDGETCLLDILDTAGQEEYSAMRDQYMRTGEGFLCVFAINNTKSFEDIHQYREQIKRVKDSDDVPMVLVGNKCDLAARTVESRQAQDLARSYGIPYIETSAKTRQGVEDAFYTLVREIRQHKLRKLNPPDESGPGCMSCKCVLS

[3] = SPR, GDP-bound NRAS wild-type vs GDP-bound KRAS wild-type
[4] = SPR, GDP-bound HRAS wild-type vs GDP-bound KRAS wild-type

SMILES	NRAS/KRAS (ratio of KD for GDP-bound NRAS wild-type to KD for KRAS) ([1]; SPR)	HRAS/KRAS (ratio of KD for GDP-bound HRAS wild-type to KD for KRAS) ([2]; SPR)	NRAS/KRAS (ratio of KD value with respect to NRAS to KD value with respect to KRAS) [1, 3]	HRAS/KRAS (ratio of KD value with respect to HRAS to KD value with respect to KRAS) [2, 4]	also measured
CC[C@H](C)[C@@H]1NC(=O)[C@H](CC(C)C)N(C)C(=O)C[C@@H](C(=O)N2CCOCC2)N(C)C(=O)[C@H](C2CCCCC2)N(C)C(=O)C2(CCCC2)NC(=O)[C@@H]2CCCN2C(=O)[C@H](CCc2cc(F)c(C(F)(F)F)c(F)c2)NC(=O)CN(C)C(=O)[C@H](Cc2ccc(C(F)(F)F)cc2)N2CCCCC[C@@H](C2=O)N(C)C(=O)CN(C)C1=O [PP0505]	–	–	–	–	NRAS/KRAS (ratio of KD value with respect to GDP-bound NRAS wild-type protein to KD value with respect to KRAS) ([1]; SPR): B (a compound having 3 or more and less than 10 is denoted as B); HRAS/KRAS (ratio of KD value with respect to GDP-bound HRAS wild-type protein to KD value with respect to KRAS) ([2]; SPR): B (a compound having 3 or more and less than 10 is denoted as B)
CCCN1CC(=O)NC2(CCCC2)C(=O)N(C)[C@@H](C2CCCC2)C(=O)N(C)[C@H](C(=O)N2CCOCC2)CC(=O)N(C)[C@@H](CC(C)C)C(=O)N[C@@H]([C@@H](C)CC)C(=O)N2CC[C@H]2C(=O)N(C)CC(=O)N(CCC)[C@@H](Cc2ccc(C(F)(F)F)cc2)C(=O)N(C)CC(=O)N[C@@H](CCc2ccc(C(F)(F)F)c(Cl)c2)C1=O [PP0315] ([NMeL]I[Aze][Sar][NPrPhe(4-CF3)][Sar][hPhe(3-Cl-4-CF3)][NPrGly][Ac5c][NMeGly(cPent)][NMeD]-Morpholide; lactam N-11)	B (a compound having 3 or more and less than 10 is denoted as B)	B (a compound having 3 or more and less than 10 is denoted as B)	–	–	–
C#CCN1CC(=O)N(C)[C@H]2C/C=C\CCN(C2=O)[C@@H](Cc2ccc(C)cc2)C(=O)N(C)CC(=O)N[C@@H](CCc2cc(F)c(C(F)(F)F)c(F)c2)C(=O)N2C[C@H](OCC)C[C@H]2C(=O)NC2(CC(C)(C)C2)C(=O)N(C)[C@@H](C2CCCC2)C(=O)N(C)[C@H](C(=O)N(C)C)CC(=O)N(C)[C@@H](CCC)C(=O)N[C@@H]([C@@H](C)CC)C1=O [PP2095]	–	–	A (a compound having 10 or more and less than 20 is denoted as A)	A (a compound having 10 or more and less than 20 is denoted as A)	–
CCC[C@H]1C(=O)N[C@@H]([C@@H](C)CC)C(=O)N(C)CC(=O)N(C)[C@H]2C/C=C\CCN(C2=O)[C@@H](Cc2ccc(C(F)(F)F)cc2)C(=O)N(C)CC(=O)N[C@@H](CCc2ccc(C(F)(F)F)c(OC)c2)C(=O)N2C[C@H](OCC)C[C@H]2C(=O)NC2(CC(C)(C)C2)C(=O)N(C)[C@@H](C(CC)CC)C(=O)N(C)[C@H](C(=O)N(C)C)CC(=O)N1C [PP2160]	–	–	A (a compound having 10 or more and less than 20 is denoted as A)	A (a compound having 10 or more and less than 20 is denoted as A)	–
CCO[C@@H]1C[C@H]2C(=O)NC3(CC(C)(C)C3)C(=O)N(C)[C@@H](C3CCCC3)C(=O)N(C)[C@H](C(=O)N(C)CC)CC(=O)N(C)[C@@H](CC(F)F)C(=O)N[C@@H]([C@@H](C)CC)C(=O)N(C)CC(=O)N(C)[C@H]3C/C=C\CCN(C3=O)[C@@H](Cc3ccc(C(F)(F)F)cc3)C(=O)N(C)CC(=O)N[C@@H](CCc3cc(F)c(C(F)(F)F)c(F)c3)C(=O)N2C1 [PP1643]	–	–	–	–	NRAS/KRAS (ratio of KD value for NRAS to KD value for KRAS) ([1]; KD ratio, GDP-bound NRAS wild-type vs GDP-bound KRAS wild-type, SPR): A (a compound having 10 or more and less than 20 is denoted as A); HRAS/KRAS (ratio of KD value for HRAS to KD value for KRAS) ([2]; KD ratio, GDP-bound HRAS wild-type vs GDP-bound KRAS wild-type, SPR): A (a compound having 10 or more and less than 20 is denoted as A)
CCC(CC)[C@H]1C(=O)N(C)[C@H](C(=O)N2CCCC2)CC(=O)N(C)[C@H]2CCC/C=C/c3ccc(cc3)C[C@@H](C(=O)N(C)CC(=O)N[C@@H](CCc3ccc(Cl)c(Cl)c3)C(=O)N3CCC[C@H]3C(=O)NC3(CC(C)(C)C3)C(=O)N1C)N1CC/C=C\C[C@@H](C1=O)N(C)C(=O)CN(C)C(=O)[C@H]([C@@H](C)CC)NC2=O [PP2604]	–	–	–	–	NRAS/KRAS (ratio of KD value with respect to GDP-bound NRAS wild-type protein to KD value with respect to KRAS) ([1]; class symbols): AA (a compound having 20 or more is denoted as AA); HRAS/KRAS (ratio of KD value with respect to GDP-bound HRAS wild-type protein to KD value with respect to KRAS) ([2]; class symbols): A (a compound having 10 or more and less than 20 is denoted as A)
CCCN1C(=O)[C@@H]2CCN2C(=O)CN(C)C(=O)[C@H]([C@@H](C)CC)NC(=O)[C@H](CC(C)C)N(C)C(=O)C[C@@H](C(=O)N2CCOCC2)N(C)C(=O)[C@H](C2CCCC2)N(C)C(=O)[C@](C)(CC)NC(=O)[C@@H]2CCCN2C(=O)[C@H](CCc2cc(F)c(C(F)(F)F)c(F)c2)NC(=O)CN(C)C(=O)[C@@H]1Cc1ccc(C(F)(F)F)cc1 [PP0790] ([NMeL]I[Sar][Aze][NPrPhe(4-CF3)][Sar][hPhe(3,5-F2-4-CF3)]P[Iva][NMeGly(cPent)][NMeD]-Morpholide; lactam N-11)	–	–	–	–	NRAS/KRAS (ratio of KD value with respect to GDP-bound NRAS wild-type protein to KD value with respect to KRAS) ([1]; SPR): C (A compound having a KD ratio of 0.1 or more and less than 3 is denoted as C); HRAS/KRAS (ratio of KD value with respect to GDP-bound HRAS wild-type protein to KD value with respect to KRAS) ([2]; SPR): B (a compound having 3 or more and less than 10 is denoted as B)
C=CCCN1C(=O)CN(C)C(=O)CN(C)C(=O)[C@H]([C@@H](C)CC)NC(=O)[C@H](CC(C)C)N(C)C(=O)C[C@@H](C(=O)N2CCOCC2)N(C)C(=O)[C@H](C2CCCC2)N(C)C(=O)C2(CCCC2)NC(=O)[C@@H]2CCCN2C(=O)[C@H](CCc2ccc(C(F)(F)F)c(Cl)c2)NC(=O)CN(C)C(=O)[C@@H]1Cc1ccc(C)cc1 [PP0101] ([NMeL]I[Sar][Sar][X48][Sar][hPhe(3-Cl-4-CF3)]P[Ac5c][NMeGly(cPent)][NMeD]-Morpholide; lactam N-11)	B (a compound having 3 or more and less than 10 is denoted as B)	C (A compound having a KD ratio of 0.1 or more and less than 3 is denoted as C)	–	–	–
CC[C@H](C)[C@@H]1NC(=O)[C@H](CC(C)C)N(C)C(=O)C[C@@H](C(=O)N2CCOCC2)N(C)C(=O)[C@H](C2CCCC2)N(C)C(=O)C2(CC2)NC(=O)[C@@H]2CCCN2C(=O)[C@H](CCc2ccc(C(F)(F)F)c(Cl)c2)NC(=O)CN(C)C(=O)[C@H](Cc2ccc(C(F)(F)F)cc2)N(CC)C(=O)CN(C)C(=O)CN(C)C1=O [PP0234] ([NMeL]I[Sar][Sar][NEtPhe(4-CF3)][Sar][hPhe(3-Cl-4-CF3)]P[Ac3c][NMeGly(cPent)][NMeD]-Morpholide; lactam N-11)	B (a compound having 3 or more and less than 10 is denoted as B)	C (A compound having a KD ratio of 0.1 or more and less than 3 is denoted as C)	–	–	–
CCO[C@@H]1C[C@H]2C(=O)N(C)C3(CCC3)C(=O)N(C)[C@@H](C(CC)CC)C(=O)N(C)[C@H](C(=O)N(C)C)CC(=O)N(C)[C@@H](COC)C(=O)N[C@@H]([C@@H](C)CC)C(=O)N(C3CC3)CC(=O)N(C)[C@H]3C/C=C\CCN(C3=O)[C@@H](CC3CCCCC3)C(=O)N(C)CC(=O)N[C@@H](CCc3ccc(C(F)(F)F)c(OC)c3)C(=O)N2C1 [PP2339]	–	–	A (a compound having 10 or more and less than 20 is denoted as A)	A (a compound having 10 or more and less than 20 is denoted as A)	–
